# “And” between values parts separate entries of the source, which are not always exact repeats. Equal values may be shown once. Inconclusive results and toxic doses are left out.
# System: B6C3F1 mice, ip Sarcoma M5076, median survival T/C
# Assay: NCI In Vivo Anticancer Drug Screen. Data for tumor model Sarcoma M5076 (intraperitoneal) in B6C3F1 mice
# Settings: endpoint: median survival time, higher = longer survival
# In short: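 Transplantable tumour in mice; compound-treated vs vehicle-treated groups. Read-out: survival. Value = treated/control ratio.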
# [1] = dose: 25.0 mg/kg/injection, schedule: Q04DX004 (ip), vehicle: saline
# [2] = dose: 25.0 mg/kg/injection, schedule: Q04DX004 (ip), vehicle: suspension in saline
# [3] = dose: 50.0 mg/kg/injection, schedule: Q04DX004 (ip), vehicle: saline
# [4] = dose: 50.0 mg/kg/injection, schedule: Q04DX004 (ip), vehicle: suspension in saline
# [5] = dose: 100.0 mg/kg/injection, schedule: Q04DX004 (ip), vehicle: saline
# [6] = dose: 25.0 mg/kg/injection, schedule: Q04DX004 (ip), vehicle: saline with Tween-80
# [7] = dose: 50.0 mg/kg/injection, schedule: Q04DX004 (ip), vehicle: saline with Tween-80
# [8] = dose: 100.0 mg/kg/injection, schedule: Q04DX004 (ip), vehicle: saline with Tween-80
# [9] = dose: 200.0 mg/kg/injection, schedule: Q04DX004 (ip), vehicle: saline with Tween-80
# [10] = dose: 400.0 mg/kg/injection, schedule: Q04DX004 (ip), vehicle: saline with Tween-80
structure (smiles),measurement,setting,value
CNC(=O)OCc1nc(SC)n(C)c1COC(=O)NC,T/C,[1],122 % of control
same,T/C,[2],119 % of control
same,T/C,[3],119 % of control
same,T/C,[4],122 % of control
same,T/C,[5],151 % of control
same,T/C,"dose: 200.0 mg/kg/injection, schedule: Q04DX004 (ip), vehicle: saline",184 % of control
same,T/C,"dose: 200.0 mg/kg/injection, schedule: Q04DX004 (ip), vehicle: suspension in saline",193 % of control
CCOC(=O)C(N)CSC(=O)NC (stereo not drawn),T/C,"dose: 130.0 mg/kg/injection, schedule: Q04DX004 (ip), vehicle: saline",105 % of control
same,T/C,"dose: 216.0 mg/kg/injection, schedule: Q04DX004 (ip), vehicle: saline",111 % of control and 119 % of control
same,T/C,"dose: 360.0 mg/kg/injection, schedule: Q04DX004 (ip), vehicle: saline",115 % of control and 122 % of control
O=C(O)c1cc(C(=O)O)c(C(=O)O)cc1C(=O)O.[NH2-].[NH2-].[NH2-].[NH2-].[Pt+2].[Pt+2],T/C,"dose: 0.12 mg/kg/injection, schedule: Q04DX004 (ip), vehicle: water",99 % of control
same,T/C,"dose: 0.25 mg/kg/injection, schedule: Q04DX004 (ip), vehicle: water",112 % of control
same,T/C,"dose: 0.5 mg/kg/injection, schedule: Q04DX004 (ip), vehicle: water",100 % of control
same,T/C,"dose: 1.0 mg/kg/injection, schedule: Q04DX004 (ip), vehicle: water",97 % of control
same,T/C,"dose: 2.0 mg/kg/injection, schedule: Q04DX004 (ip), vehicle: water",94 % of control
same,T/C,"dose: 4.0 mg/kg/injection, schedule: Q04DX004 (ip), vehicle: water",103 % of control and 108 % of control
same,T/C,"dose: 8.0 mg/kg/injection, schedule: Q04DX004 (ip), vehicle: water",113 % of control and 119 % of control
same,T/C,"dose: 32.0 mg/kg/injection, schedule: Q04DX004 (ip), vehicle: water",150 % of control and 241 % of control
same,T/C,"dose: 64.0 mg/kg/injection, schedule: Q04DX004 (ip), vehicle: water",250 % of control
CC1OC2CC(O)C1(O)C1=C2C(O)=C(C(N)=O)C(=N)C1=O (stereo not drawn),T/C,"dose: 1.25 mg/kg/injection, schedule: Q04DX004 (ip), vehicle: saline",108 % of control
same,T/C,"dose: 2.5 mg/kg/injection, schedule: Q04DX004 (ip), vehicle: saline",101 % of control
same,T/C,"dose: 5.0 mg/kg/injection, schedule: Q04DX004 (ip), vehicle: saline",100 % of control
N#CC1C(=O)NC(=O)C(C#N)C1C1C(=O)NC2CCCCC21 (stereo not drawn),T/C,"dose: 43.75 mg/kg/injection, schedule: Q04DX004 (ip), vehicle: saline with Tween-80",93 % of control
same,T/C,"dose: 87.5 mg/kg/injection, schedule: Q04DX004 (ip), vehicle: saline with Tween-80",100 % of control
same,T/C,"dose: 175.0 mg/kg/injection, schedule: Q04DX004 (ip), vehicle: saline with Tween-80",95 % of control
same,T/C,"dose: 350.0 mg/kg/injection, schedule: Q04DX004 (ip), vehicle: saline with Tween-80",95 % of control
CCN(CC)CCN1C(=O)C2C3C=CC(C2C1=O)C1C2C(=O)N(CCN(CC)CC)C(=O)C2C31 (stereo not drawn),T/C,"dose: 25.0 mg/kg/injection, schedule: Q04DX004 (ip), vehicle: water",95 % of control
same,T/C,"dose: 50.0 mg/kg/injection, schedule: Q04DX004 (ip), vehicle: water",99 % of control
same,T/C,"dose: 100.0 mg/kg/injection, schedule: Q04DX004 (ip), vehicle: water",97 % of control
same,T/C,"dose: 200.0 mg/kg/injection, schedule: Q04DX004 (ip), vehicle: water",99 % of control
COc1cc(C(=O)c2cc3c(cc2C)OCO3)cc(OC)c1OC,T/C,"dose: 3.75 mg/kg/injection, schedule: Q04DX004 (ip), vehicle: Klucel (hydroxypropylcellulose) (HPC)",97 % of control
same,T/C,"dose: 7.5 mg/kg/injection, schedule: Q04DX004 (ip), vehicle: Klucel (hydroxypropylcellulose) (HPC)",109 % of control
same,T/C,"dose: 15.0 mg/kg/injection, schedule: Q04DX004 (ip), vehicle: Klucel (hydroxypropylcellulose) (HPC)",104 % of control
same,T/C,"dose: 30.0 mg/kg/injection, schedule: Q04DX004 (ip), vehicle: Klucel (hydroxypropylcellulose) (HPC)",105 % of control
same,T/C,"dose: 37.5 mg/kg/injection, schedule: Q04DX004 (ip), vehicle: Klucel (hydroxypropylcellulose) (HPC)",110 % of control
same,T/C,"dose: 60.0 mg/kg/injection, schedule: Q04DX004 (ip), vehicle: Klucel (hydroxypropylcellulose) (HPC)",100 % of control
same,T/C,"dose: 75.0 mg/kg/injection, schedule: Q04DX004 (ip), vehicle: Klucel (hydroxypropylcellulose) (HPC)",108 % of control and 114 % of control
same,T/C,"dose: 150.0 mg/kg/injection, schedule: Q04DX004 (ip), vehicle: Klucel (hydroxypropylcellulose) (HPC)",113 % of control and 116 % of control
same,T/C,"dose: 300.0 mg/kg/injection, schedule: Q04DX004 (ip), vehicle: Klucel (hydroxypropylcellulose) (HPC)",107 % of control
S=C(NCNC(=S)c1ccncc1)c1ccncc1,T/C,[6],96 % of control
same,T/C,[7],99 % of control
same,T/C,[8],92 % of control
same,T/C,[9],102 % of control
same,T/C,[10],107 % of control
CC(=O)C[n+]1ccccc1Sc1ccc(Cl)cc1,T/C,[6],98 % of control
same,T/C,[7],86 % of control
same,T/C,[8],88 % of control
COc1cc2c(cc1OC)-c1c3c(cc4c1[C@@H](C2)N(C)CC4)OCO3,T/C,"dose: 12.5 mg/kg/injection, schedule: Q04DX004 (ip), vehicle: distilled water + Tween-80",101 % of control
same,T/C,"dose: 25.0 mg/kg/injection, schedule: Q04DX004 (ip), vehicle: distilled water + Tween-80",100 % of control
same,T/C,"dose: 50.0 mg/kg/injection, schedule: Q04DX004 (ip), vehicle: distilled water + Tween-80",100 % of control
same,T/C,"dose: 100.0 mg/kg/injection, schedule: Q04DX004 (ip), vehicle: distilled water + Tween-80",95 % of control
CN(C)CCN1C(=O)c2cccc3cc(N)cc(c23)C1=O,T/C,"dose: 12.96 mg/kg/injection, schedule: Q04DX004 (ip), vehicle: acid diluted with saline",108 % of control and 117 % of control
same,T/C,"dose: 21.6 mg/kg/injection, schedule: Q04DX004 (ip), vehicle: acid diluted with saline",159 % of control
same,T/C,"dose: 36.0 mg/kg/injection, schedule: Q04DX004 (ip), vehicle: acid diluted with saline",158 % of control
O=C(Nc1ccccc1O)C1C(=O)C(=O)N(c2ccccc2O)C1=O (stereo not drawn),T/C,[7],106 % of control
same,T/C,[8],103 % of control
same,T/C,[9],100 % of control
same,T/C,[10],100 % of control
same,T/C,"dose: 800.0 mg/kg/injection, schedule: Q04DX004 (ip), vehicle: saline with Tween-80",95 % of control
O=C(Nc1ccc([N+](=O)[O-])cc1)C1C(=O)C(=O)N(c2ccc([N+](=O)[O-])cc2)C1=O (stereo not drawn),T/C,"dose: 50.0 mg/kg/injection, schedule: Q04DX004 (ip), vehicle: Klucel + Tween-80",96 % of control
same,T/C,"dose: 100.0 mg/kg/injection, schedule: Q04DX004 (ip), vehicle: Klucel + Tween-80",104 % of control
same,T/C,"dose: 200.0 mg/kg/injection, schedule: Q04DX004 (ip), vehicle: Klucel + Tween-80",92 % of control
Nc1ccc(S(=O)(=O)Nc2cnc3c(Cl)cccc3n2)cc1,T/C,"dose: 100.0 mg/kg/injection, schedule: Q04DX004 (ip), vehicle: DMSO",104 % of control
same,T/C,"dose: 200.0 mg/kg/injection, schedule: Q04DX004 (ip), vehicle: DMSO",102 % of control
same,T/C,"dose: 400.0 mg/kg/injection, schedule: Q04DX004 (ip), vehicle: DMSO",93 % of control
COC1CC(C)C(OC)c2cc(O)cc(c2O)NC(=O)/C(C)=C/C=C\C(C)C(OC(N)=O)/C(C)=C\C(C)C1OC (stereo not drawn),T/C,"dose: 0.63 mg/kg/injection, schedule: Q01DX009 (ip), vehicle: saline + alcohol",115 % of control
same,T/C,"dose: 1.25 mg/kg/injection, schedule: Q01DX009 (ip), vehicle: saline + alcohol",111 % of control
same,T/C,"dose: 1.8 mg/kg/injection, schedule: Q01DX009 (ip), vehicle: saline + alcohol",122 % of control
same,T/C,"dose: 2.5 mg/kg/injection, schedule: Q01DX009 (ip), vehicle: saline + alcohol",107 % of control
NC(=O)CCC(N)C(=O)O (stereo not drawn),T/C,"dose: 3.12 mg/kg/injection, schedule: Q04DX004 (ip), vehicle: saline",100 % of control
same,T/C,"dose: 6.25 mg/kg/injection, schedule: Q04DX004 (ip), vehicle: saline",104 % of control and 105 % of control
same,T/C,"dose: 12.5 mg/kg/injection, schedule: Q04DX004 (ip), vehicle: saline",97 % of control and 99 % of control
same,T/C,[1],98 % of control and 108 % of control
same,T/C,[3],105 % of control and 111 % of control
same,T/C,[5],103 % of control and 124 % of control
Cn1c(-c2ccc(Br)cc2)cc2[nH]c(=S)nc(N)c2c1=O,T/C,[7],96 % of control
same,T/C,[8],92 % of control
same,T/C,[9],87 % of control
CN(C)C(=O)c1cccc(COc2ccc(N3C(N)=NC(N)=NC3(C)C)cc2Cl)c1,T/C,"dose: 6.25 mg/kg/injection, schedule: Q04DX004 (ip), vehicle: suspension in saline",90 % of control
same,T/C,"dose: 12.5 mg/kg/injection, schedule: Q04DX004 (ip), vehicle: suspension in saline",102 % of control
same,T/C,[2],93 % of control
same,T/C,[4],97 % of control
same,T/C,"dose: 100.0 mg/kg/injection, schedule: Q04DX004 (ip), vehicle: suspension in saline",113 % of control

# Source: PubChem BioAssay AID292 (DTP/NCI, 2004)
